{"source": "patent US7906488B2", "about": "“Sphingolipids in treatment and prevention of steatosis and of steatosis or of hepatotoxicity and its sequelae” (Nederlandse Organisatie Voor …, priority 2004, dated 2011)", "system": "APOE3*Leiden (E3L) mice", "assay": "High fat high cholesterol diet feeding for 16 weeks (Example 1)", "format": "in vivo", "method": "Forty-five female heterozygous APOE3*Leiden […]) mice were fed a high fat and high cholesterol diet for four weeks (week -4 to 0). The mice were housed during the experiment in clean-conventional animal rooms (relative humidity 50-60%, temperature 21° C., light cycle 6 am to 6 pm). Mice were supplied with food and acidified tap water ad libitum. At week 0, the mice were randomized on the basis of plasma total triglyceride and cholesterol levels into a control group of fifteen mice and two treatment groups of fifteen mice. The groups were: • 1. high fat, high cholesterol diet only • 2. high fat, high cholesterol diet plus 0.7% (w/w) phytosphingosine • 3. high fat, 'high' cholesterol diet with a reduced cholesterol content, resulting in about the same plasma cholesterol level as was obtained in group 2. The treatment was continued for 16 weeks. During the treatment period, tail blood samples were obtained at week 0, 2, 4, 8, 12, and 16 to measure plasma cholesterol and triglyceride levels and to determine plasma lipoprotein composition. After sixteen weeks, mice were autopsied, liver weight was determined. Body weight and food consumption were determined every four weeks Dietary ingredients were provided by Hope Farms (Woerden, the Netherlands). For group 1 (high cholesterol), the hypercholesterolemic Western-type diet (W-diet) described by Nishina et al (J. Lipid Res. 1990; 31:859) was supplemented with cholesterol (0.5% w/w, final concentration) and with sodium cholate (0.05% w/w, final concentration). This powdered Western-type diet was mixed with 2% agar and freeze-dried as pellets. The diet for group 2 (treatment group) was prepared by the addition of 0.7% (w/w) phytosphingosine to the same powdered Western-type diet (i.e. also supplemented with cholesterol (0.5% w/w, final concentration) and sodium cholate (0.05% w/w, final concentration)). The supplemented diet mixture was mixed with 2% agar and freeze-dried as pellets. The diet W for group 3 (low cholesterol) contained 0.1% cholesterol, and 0.05% sodium cholate (w/w, final concentration). This powdered Western-type diet was mixed with 2% agar and freeze-dried as pellets. The diets were prepared every eight weeks, and stored in the dark at -20° C. Food was given ad libitum. Total cholesterol was measured using the kit Chol R1 from Roche. Total triglycerides were measured using the kit Triglycerides GPO-PAP from Roche. ALAT was measured by dry chemistry on a Reflotron (Roche).", "key": {"[1]": {"conditions": "week 16, 0.7% (w/w) phytosphingosine in high fat, high cholesterol diet"}, "[2]": {"conditions": "week 16, 0.7% phytosphingosine, p<0.001"}}}
{"smiles": "CCCCCCCCCCCCCC[C@@H](O)[C@@H](O)[C@@H](N)CO", "note": "[PS, phytosphingosine]", "values": [{"measurement": "Body weight and food intake between the three groups", "setting": "0.7% phytosphingosine, 16 weeks", "value": "did not differ"}, {"measurement": "Final mean body weight", "setting": "[1]", "value": 22.1, "unit": "gram"}, {"measurement": "Final mean liver weight", "setting": "[1]", "value": 1.34, "unit": "gram"}, {"measurement": "Final mean plasma ALAT values", "setting": "[1]", "value": 82, "unit": "U/L"}, {"measurement": "ALAT compared with high cholesterol group", "setting": "[2]", "value": "significantly lower"}, {"measurement": "Liver weight compared with high cholesterol group 1", "setting": "[2]", "value": "significantly lower"}]}
